As usually defined, the IC50 is the concentration that inhibits the measured activity by half.

Assay [1] has as its target T1, BTK (Homo sapiens, UniProt Q06187).
T1 construct: purchased Invitrogen PV3190
Nature of the assay: BTK inhibitory activity, Z-Lyte Kinase Assay Kit. The format is biochemical. Conditions: 60 minutes at room temperature, BTK enzyme (Invitrogen PV3190). As to the method:
(§1) Evaluation of JAK3 and BTK Inhibitory Activity
(§2) The compounds prepared in Examples 1 to 20 were tested for JAK3 and BTK inhibitory activity. Kinase inhibitory activity was measured by using Z-Lyte Kinase Assay Kit (Invitrogen), and JAK3 and BTK enzymes were purchased from Invitrogen (PV3855, PV3190).
(§3) Specifically, the compounds of Examples 1 to 20 were diluted with a 4% aqueous solution of DMSO to obtain solutions with concentrations in the range of 1˜0.0001 μM. Each kinase was diluted to 1˜10 ng/assay, and ATP was diluted to form a kinase buffer (50 mM HEPES, pH 7.4; 10 mM MgCl2; 1 mM EGTA; 0.01% BRIJ-35) by calculating an approximate Kd value. The assays were performed in 384-well polystyrene flat-bottomed plates. 5 μL of the diluted solution of the compound, peptide substrate having a suitable concentration, 10 μL of mixed kinase solution and 5 μL of ATP solution having a concentration of 5 to 300 μM were added to the sample, and allowed to react in a mixer for 60 minutes at room temperature. After 60 minutes, 10 μL of fluorescent labeling reagents was added to each mixture so as to allow fluorescent labeling of peptide substrates, followed by adding a finishing solution to complete the reaction. The fluorescence level was measured using a Molecular Device with an excitation filter at 400 nm, and an emission filter at 520 nm. The kinase inhibitory activities of the compounds were calculated in phosphorylation rates between 0˜100% against the control group (staurosporine or each of kinase inhibitor) with reference to the protocol of the kit, and percentage inhibition was calculated and plotted against concentration (x-axis) to calculate 50% inhibitory concentration (IC50). The IC50 values were obtained by using Microsoft Excel, and the results are shown in Table 5, wherein A: IC50≦50 nM, B: IC50=50˜100 nM, C: IC50=100˜1,000 nM, and D: IC50≧1,000 nM.

For assay [2], the target named is T2, JAK3 (Homo sapiens, UniProt P52333).
T2 construct: purchased Invitrogen PV3855
Briefly: JAK3 inhibitory activity, Z-Lyte Kinase Assay Kit. The class given is biochemical. The note with it: 60 minutes at room temperature, JAK3 enzyme (Invitrogen PV3855). On the procedure:
as §1, §2, §3

T2 sequence (P52333 781-1124 limits assumed): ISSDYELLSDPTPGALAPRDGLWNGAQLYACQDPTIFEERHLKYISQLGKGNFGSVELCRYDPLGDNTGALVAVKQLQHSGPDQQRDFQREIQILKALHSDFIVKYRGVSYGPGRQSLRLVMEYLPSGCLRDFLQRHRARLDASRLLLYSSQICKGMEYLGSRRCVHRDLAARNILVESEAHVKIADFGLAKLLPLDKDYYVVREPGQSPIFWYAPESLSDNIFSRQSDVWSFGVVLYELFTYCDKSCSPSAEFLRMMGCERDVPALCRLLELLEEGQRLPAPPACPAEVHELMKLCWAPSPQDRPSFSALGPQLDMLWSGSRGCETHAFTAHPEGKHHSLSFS
T1 sequence (Q06187 whole entry): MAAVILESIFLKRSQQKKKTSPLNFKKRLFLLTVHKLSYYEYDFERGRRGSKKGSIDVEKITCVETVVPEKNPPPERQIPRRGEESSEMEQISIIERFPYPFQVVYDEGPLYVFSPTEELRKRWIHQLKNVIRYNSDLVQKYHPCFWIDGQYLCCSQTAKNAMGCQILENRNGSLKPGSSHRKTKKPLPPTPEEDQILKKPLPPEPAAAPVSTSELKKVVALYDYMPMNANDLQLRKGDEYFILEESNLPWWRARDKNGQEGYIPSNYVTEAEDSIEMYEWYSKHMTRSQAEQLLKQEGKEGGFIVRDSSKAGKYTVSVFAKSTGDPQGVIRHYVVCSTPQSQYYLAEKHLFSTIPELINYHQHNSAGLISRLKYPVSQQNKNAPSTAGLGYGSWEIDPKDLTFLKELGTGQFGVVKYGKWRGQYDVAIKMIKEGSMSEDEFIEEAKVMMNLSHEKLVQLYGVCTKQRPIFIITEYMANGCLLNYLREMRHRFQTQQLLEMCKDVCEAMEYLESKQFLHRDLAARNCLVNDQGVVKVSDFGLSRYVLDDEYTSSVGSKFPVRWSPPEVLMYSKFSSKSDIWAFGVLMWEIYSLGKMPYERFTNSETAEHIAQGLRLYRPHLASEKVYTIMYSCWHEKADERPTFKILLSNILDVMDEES

Regarding `C=CC(=O)Nc1cccc(Oc2c(Cl)cnc3[nH]c(-c4ccc(N5CCN(C)CC5)cc4)nc23)c1` [Example 1, N-(3-(6-chloro-2-(4-(4-methylpiperazin-1-yl)phenyl)-3H-imidazo[4,5-b]pyridin-7-yloxy)phenyl)acrylamide], the IC50 was ≤ 50 nM in assay [1] and 50 to 100 nM in assay [2]. The like results for `C=CC(=O)Nc1cccc(Oc2c(Cl)cnc3[nH]c(-c4ccc(N5CCC(O)CC5)cc4)nc23)c1` [Example 2, N-(3-(6-chloro-2-(4-(4-hydroxypiperidin-1-yl)phenyl)-3H-imidazo[4,5-b]pyridin-7-yloxy)phenyl)acrylamide] were, in that order, 50 to 100 nM and 100 to 1000 nM.

As to `C=CC(=O)Nc1cccc(Oc2c(Cl)cnc3[nH]c(-c4ccc(C(=O)N5CCN(C)CC5)cc4)nc23)c1` [Example 3, N-(3-(6-chloro-2-(4-(4-methylpiperazin-1-carbonyl)phenyl)-3H-imidazo[4,5-b]pyridin-7-yloxy)phenyl)acrylamide], the IC50 in assay [1] was ≤ 50 nM; in assay [2], 100 to 1000 nM. `C=CC(=O)Nc1cccc(Oc2c(Cl)cnc3[nH]c(-c4ccc(C(=O)N5CCOCC5)cc4)nc23)c1` [Example 4, N-(3-(6-chloro-2-(4-(morpholin-4-carbonyl)phenyl)-3H-imidazo[4,5-b]pyridin-7-yloxy)phenyl)acrylamide]: the IC50 in assay [1] was ≤ 50 nM. Consider `C=CC(=O)Nc1cccc(Oc2c(Cl)cnc3[nH]c(-c4ccc(NC5CCN(C)CC5)cc4)nc23)c1` [Example 5, N-(3-(6-chloro-2-(4-(1-methylpiperidin-4-ylamino)phenyl)-3H-imidazo[4,5-b]pyridin-7-yloxy)phenyl)acrylamide], for which the IC50 in assay [1] and in assay [2] was ≤ 50 nM in each case.

`C=CC(=O)Nc1cccc(Oc2c(Cl)cnc3[nH]c(-c4ccc(N(C)C)cc4)nc23)c1` [Example 6, N-(3-(6-chloro-2-(4-(dimethylamino)phenyl)-3H-imidazo[4,5-b]pyridin-7-yloxy)phenyl)acrylamide] had an IC50 in assay [1] of 100 to 1000 nM.

Turning to `C=CC(=O)Nc1cccc(Oc2c(Cl)cnc3[nH]c(-c4ccc([S+](C)[O-])cc4)nc23)c1` (stereo not shown) [Example 7, N-(3-(6-chloro-2-(4-(methylsulphinyl)phenyl)-3H-imidazo[4,5-b]pyridin-7-yloxy)phenyl)acrylamide], the IC50 in assay [1] is ≤ 50 nM. In the case of `C=CC(=O)Nc1cccc(Oc2c(Cl)cnc3[nH]c(-c4ccc(C(=O)N(C)C)cc4)nc23)c1` [Example 8, 4-(7-(3-acrylamidophenoxy)-6-chloro-3H-imidazo[4,5-b]pyridin-2-yl)-N,N-dimethylbenzamide], the IC50 was ≤ 50 nM in assay [1] and 50 to 100 nM in assay [2]. `C=CC(=O)Nc1cccc(Oc2c(Cl)cnc3[nH]c(-c4ccc(C(=O)O)cc4)nc23)c1` [Example 9, 4-(7-(3-acrylamidophenoxy)-6-chloro-3H-imidazo[4,5-b]pyridin-2-yl)-benzoic acid] yielded an IC50 in assay [1] of 100 to 1000 nM. Still for that read-out and setting: the figure for `C=CC(=O)Nc1cccc(Oc2c(Cl)cnc3[nH]c(-c4ccc(C(=O)NC5CCN(C)CC5)cc4)nc23)c1` [Example 10, 4-(7-(3-acrylamidophenoxy)-6-chloro-3H-imidazo[4,5-b]pyridin-2-yl)-N-(1-methylpiperidin-4-yl)benzamide] is 50 to 100 nM. `C=CC(=O)Nc1cccc(Oc2c(Cl)cnc3[nH]c(-c4ccc(CN(C)C)cc4)nc23)c1` [Example 11, N-(3-(6-chloro-2-(4-((dimethylamino)methyl)phenyl)-3H-imidazo[4,5-b]pyridin-7-yloxy)phenyl)acrylamide]: the IC50 in assay [1] and in assay [2] was ≤ 50 nM in each case. As to `C=CC(=O)Nc1cccc(Oc2c(Cl)cnc3[nH]c(-c4ccc(CN(C)CC)cc4)nc23)c1` [Example 12, N-(3-(6-chloro-2-(4-((ethyl(methyl)amino)methyl)phenyl)-3H-imidazo[4,5-b]pyridin-7-yloxy)phenyl)acrylamide], the IC50 in assay [1] and in assay [2] was ≤ 50 nM each time. `C=CC(=O)Nc1cccc(Oc2c(Cl)cnc3[nH]c(-c4ccc(CN(CC)CC)cc4)nc23)c1` [Example 13, N-(3-(6-chloro-2-(4-((diethylamino)methyl)phenyl)-3H-imidazo[4,5-b]pyridin-7-yloxy)phenyl)acrylamide]: the IC50 in assay [1] and in assay [2] was ≤ 50 nM in each case. `C=CC(=O)Nc1cccc(Oc2c(Cl)cnc3[nH]c(-c4ccc(CN5CCCC5)cc4)nc23)c1` [Example 14, N-(3-(6-chloro-2-(4-(pyrroldin-1-ylmethyl)phenyl)-3H-imidazo[4,5-b]pyridin-7-yloxy)phenyl)acrylamide]: the IC50 in assay [1] and in assay [2] was ≤ 50 nM throughout. Turning to `C=CC(=O)Nc1cccc(Oc2c(Cl)cnc3[nH]c(-c4ccc(CN5CCCCC5)cc4)nc23)c1` [Example 15, N-(3-(6-chloro-2-(4-(piperidin-1-ylmethyl)phenyl)-3H-imidazo[4,5-b]pyridin-7-yloxy)phenyl)acrylamide], the 50% inhibitory concentration (IC50) in assay [1] and in assay [2] was ≤ 50 nM in each case. As to `C=CC(=O)Nc1cccc(Oc2c(Cl)cnc3[nH]c(-c4ccc(CN5CCOCC5)cc4)nc23)c1` [Example 16, N-(3-(6-chloro-2-(4-(morpholinomethyl)phenyl)-3H-imidazo[4,5-b]pyridin-7-yloxy)phenyl)acrylamide], the IC50 in assay [1] was 50 to 100 nM; in assay [2], ≤ 50 nM.

Consider `C=CC(=O)Nc1cccc(Oc2c(Cl)cnc3[nH]c(-c4ccc(CN5CCN(C)CC5)cc4)nc23)c1` [Example 17, N-(3-(6-chloro-2-(4-((4-methylpiperazin-1-yl)methyl)phenyl)-3H-imidazo[4,5-b]pyridin-7-yloxy)phenyl)acrylamide], for which the figures for the IC50 in assay [1] and in assay [2] were 50 to 100 nM and ≤ 50 nM, respectively. In assay [1], `C=CC(=O)Nc1cccc(Oc2c(Cl)cnc3[nH]c(-c4ccc(OC)cc4)nc23)c1` [Example 18, N-(3-(6-chloro-2-(4-methoxyphenyl)-3H-imidazo[4,5-b]pyridin-7-yloxy)phenyl)acrylamide] registered an IC50 of 100 to 1000 nM. As for `C=CC(=O)Nc1cccc(Oc2c(Cl)cnc3[nH]c(-c4ccncc4)nc23)c1` [Example 19, N-(3-(6-chloro-2-(pyridin-4-yl)-3H-imidazo[4,5-b]pyridin-7-yloxy)phenyl)acrylamide], the IC50 was 100 to 1000 nM in assay [1] and ≤ 50 nM in assay [2].

For `C=CC(=O)Nc1cccc(Oc2ccnc3[nH]c(-c4ccc(N5CCN(C)CC5)cc4)nc23)c1` [Example 20, N-(3-(2-(4-(4-methylpiperazin-1-yl)phenyl)-3H-imidazo[4,5-b]pyridin-7-yloxy)phenyl)acrylamide], the IC50 in assay [1] and in assay [2] was 100 to 1000 nM each time.

The values above are taken from patent US20150299185A1, “NOVEL IMIDAZOPYRIDINE DERIVATIVES AS A TYROSINE KINASE INHIBITOR” (HANMI PHARM. CO., LTD., priority 2011, published 2015).
